Measurements taken from the NIST ThermoML archive (doi:10.1021/je050334+).

Details: Liquid, Transpiration method

COC(=O)CCCCC(=O)OC [dimethyl 1,6-hexanedioate]
Details | vapor or sublimation pressure [kPa]
293.2 K | 0.00253
296.2 K | 0.00336
299.2 K | 0.00443
302.2 K | 0.00586
305.2 K | 0.0074
308.2 K | 0.00991
310.2 K | 0.01133
313.3 K | 0.01454
316.2 K | 0.01794
319.3 K | 0.02356
322.2 K | 0.02831
325.3 K | 0.03778
328.2 K | 0.04592
331.2 K | 0.05704
334.2 K | 0.06981

CCOC(=O)c1ccccc1 [ethyl benzoate]
Details | vapor or sublimation pressure [kPa]
283.9 K | 0.0071
286.9 K | 0.0093
289 K | 0.0113
292 K | 0.0143
294.1 K | 0.0174
295 K | 0.0183
298.1 K | 0.0239
299.1 K | 0.0254
301.2 K | 0.0312
304.2 K | 0.039
307.2 K | 0.0472
310.1 K | 0.0597
312.3 K | 0.0716
315.3 K | 0.0862
317.3 K | 0.1055
320.3 K | 0.1297
323.4 K | 0.1656
326.4 K | 0.2016
329.5 K | 0.2452
332.5 K | 0.2944
